# Test results: ChEMBL document CHEMBL5131471, “Design, synthesis and mechanism studies of novel dual PARP1/BRD4 inhibitors against pancreatic cancer” (Eur J Med Chem, 2022)
# pIC50: −log10 of the molar value. Calls of active or inactive are those of the source. The calls are words filed in the database; no cut-off is given here.
# Columns and labels:
# SW1990 [1] = assay: Upregulation of E2F2 expression in human SW1990 cells at 6 uM measured after 4 days by Western blot analysis; type: functional, cell-based; details: time 4.0 day
# SW1990 [2] = assay: Effect on BRCA1 gene expression in human SW1990 cells at 6 uM by Q-PCR analysis; type: functional, cell-based
# [3] = Toxicity in nude mouse xenografted with human SW1990 cells assessed as heart damage at 45 mg/kg, ip administered for 28 days by H and E staining based fluorescence microscopic analysis; type: organism-based; details: in vivo, 672 h, time 28 day
# SW1990 [4] = assay: Effect on CDC25B gene expression in human SW1990 cells at 6 uM by Q-PCR analysis; type: functional, cell-based
# SW1990 [5] = assay: Upregulation of CDK6 expression in human SW1990 cells at 6 uM measured after 4 days by Western blot analysis; type: functional, cell-based; details: time 4.0 day
# SW1990 [6] = assay: Effect on CCND1 gene expression in human SW1990 cells at 6 uM by Q-PCR analysis; type: functional, cell-based
# SW1990 [7] = assay: Effect on FOXO1 gene expression in human SW1990 cells at 6 uM by Q-PCR analysis; type: functional, cell-based
# SW1990 [8] = assay: Induction of apoptosis in human SW1990 cells assessed as necrotic cells at 6 uM measured after 4 days by Annexin V-FITC and propidium iodide staining based flow cytometry (reference value: 2.45%); type: functional; details: time 4 day
# SW1990 [9] = assay: Upregulation of CDK1 expression in human SW1990 cells at 6 uM measured after 4 days by Western blot analysis; type: functional, cell-based; details: time 4.0 day
# SW1990 [10] = assay: Upregulation of CDC25B expression in human SW1990 cells at 6 uM measured after 4 days by Western blot analysis; type: functional, cell-based; details: time 4.0 day
# SW1990 [11] = assay: Effect on ALDH1A1 gene expression in human SW1990 cells at 6 uM by Q-PCR analysis; type: functional, cell-based
# [12] = Toxicity in nude mouse xenografted with human SW1990 cells assessed as liver damage at 45 mg/kg, ip administered for 28 days by H and E staining based fluorescence microscopic analysis; type: organism-based; details: in vivo, 672 h, time 28 day
# SW1990 [13] = assay: Induction of DNA damage in human SW1990 cells assessed as increase in gammaH2AX expression at 6 uM incubated for 4 days by DAPI staining based laser confocal microscopic analysis; type: functional, cell-based; details: time 4.0 day
# SW1990 [14] = assay: Effect on BRCA1 gene expression in human SW1990 cells at 4 uM by Q-PCR analysis; type: functional, cell-based
# SW1990 [15] = assay: Effect on FOXM1 gene expression in human SW1990 cells at 4 uM by Q-PCR analysis; type: functional, cell-based
# SW1990 [16] = assay: Effect on CDK1 gene expression in human SW1990 cells at 4 uM by Q-PCR analysis; type: functional, cell-based
# SW1990 [17] = assay: Effect on CDC25B gene expression in human SW1990 cells at 4 uM by Q-PCR analysis; type: functional, cell-based
# SW1990 [18] = assay: Effect on E2F2 gene expression in human SW1990 cells at 4 uM by Q-PCR analysis; type: functional, cell-based
# SW1990 [19] = assay: Induction of apoptosis in human SW1990 cells assessed as early apoptotic cells at 1 uM measured after 4 days in presence of 3 uM Olaparib by Annexin V-FITC and propidium iodide staining based flow cytometry (reference value: 1.62%); type: functional; details: time 4 day
# SW1990 [20] = assay: Effect on CDC25A gene expression in human SW1990 cells at 1 to 2 uM by Q-PCR analysis; type: functional, cell-based; details: dose 1-2 µM
# SW1990 [21] = assay: Induction of apoptosis in human SW1990 cells assessed as late apoptotic cells at 1 uM measured after 4 days by Annexin V-FITC and propidium iodide staining based flow cytometry (reference value: 7.23%); type: functional; details: time 4 day
# SW1990 [22] = assay: Induction of DNA damage in human SW1990 cells assessed as increase in tail DNA at 1 to 2 uM incubated for 4 days by comet assay; type: functional, cell-based; details: dose 1-2 µM, time 4.0 day
# SW1990 [23] = assay: Downregulation of PARP1 expression in human SW1990 cells at 2 uM measured after 4 days by Western blot analysis; type: functional, cell-based; details: time 4.0 day
# SW1990 [24] = assay: Effect on MDC1 gene expression in human SW1990 cells at 1 to 2 uM by Q-PCR analysis; type: functional, cell-based; details: dose 1-2 µM
# SW1990 [25] = assay: Downregulation of Ki67 expression in human SW1990 cells at 30 mg/kg, ip measured after 28 days by immuno histochemical staining based fluorescence microscopic analysis; type: functional, organism-based; details: time 28.0 day
# SW1990 [26] = assay: Inhibition of CDK1 protein expression in human SW1990 cells at 1 to 2 uM measured after 4 days by Western blot analysis; type: functional, cell-based; details: dose 1-2 µM, time 4.0 day
# [27] = biological target: Poly [ADP-ribose] polymerase 1 (Homo sapiens, UniProt P09874); assay: Inhibition of PARP1 (unknown origin) using biotinylated NAD+ as substrate by microplate reader method
# Poly [ADP-ribose] polymerase 1, sequence (P09874 whole entry): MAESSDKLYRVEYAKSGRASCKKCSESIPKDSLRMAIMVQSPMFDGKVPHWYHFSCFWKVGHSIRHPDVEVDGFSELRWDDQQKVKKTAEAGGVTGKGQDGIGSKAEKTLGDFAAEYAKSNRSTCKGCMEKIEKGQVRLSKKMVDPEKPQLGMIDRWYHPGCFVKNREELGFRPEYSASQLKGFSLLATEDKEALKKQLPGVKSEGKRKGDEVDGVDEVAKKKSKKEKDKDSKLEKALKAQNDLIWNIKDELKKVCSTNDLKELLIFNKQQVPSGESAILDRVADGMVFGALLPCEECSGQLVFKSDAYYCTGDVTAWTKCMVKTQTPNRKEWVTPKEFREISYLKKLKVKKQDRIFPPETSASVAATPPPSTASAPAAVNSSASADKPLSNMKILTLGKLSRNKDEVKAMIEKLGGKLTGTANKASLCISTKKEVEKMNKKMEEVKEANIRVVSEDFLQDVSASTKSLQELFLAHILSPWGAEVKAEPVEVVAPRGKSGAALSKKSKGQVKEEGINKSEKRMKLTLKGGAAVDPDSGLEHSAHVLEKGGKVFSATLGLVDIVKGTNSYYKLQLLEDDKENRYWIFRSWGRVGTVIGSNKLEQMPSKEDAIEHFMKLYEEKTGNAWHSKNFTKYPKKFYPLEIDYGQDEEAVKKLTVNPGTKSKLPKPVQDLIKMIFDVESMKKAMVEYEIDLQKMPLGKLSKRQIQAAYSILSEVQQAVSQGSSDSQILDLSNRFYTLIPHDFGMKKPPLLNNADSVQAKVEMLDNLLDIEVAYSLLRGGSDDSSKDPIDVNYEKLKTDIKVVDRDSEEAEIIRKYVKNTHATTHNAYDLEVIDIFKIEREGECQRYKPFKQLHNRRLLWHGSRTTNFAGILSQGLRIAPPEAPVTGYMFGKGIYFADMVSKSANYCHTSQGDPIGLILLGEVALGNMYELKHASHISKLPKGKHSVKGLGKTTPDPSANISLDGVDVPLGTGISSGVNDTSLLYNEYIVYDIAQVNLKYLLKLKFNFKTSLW
# SW1990 [28] = assay: Effect on BRCA2 gene expression in human SW1990 cells at 1 to 2 uM by Q-PCR analysis; type: functional, cell-based; details: dose 1-2 µM
# Mus musculus = assay: Inhibition of homologous recombinant repair in nude mouse xenografted with human SW1990 cells assessed as reversal of olaparib-induced TOPBP1 expression at 30 mg/kg, ip measured after 4 days by Western blot analysis; type: functional, organism-based; details: time 4.0 day
# SW1990 [29] = assay: Antiproliferative activity against human SW1990 cells assessed as inhibition of cell growth measured after 4 days by MTT assay; type: functional, cell-based; details: SW1990, 96 h
smiles,measurement,setting,value
O=C(c1cc(Cc2n[nH]c(=O)c3ccccc23)ccc1F)N1CCN(C(=O)C2CC2)CC1 [OLAPARIB],Activity,SW1990 [1],Active
same,Activity,SW1990 [2],Active
same,Activity,[3],Non-Toxic
same,Activity,SW1990 [4],Active
same,Activity,SW1990 [5],Active
same,Activity,SW1990 [6],Active
same,Activity,SW1990 [7],Active
same,Activity,SW1990 [8],1.66%
same,Activity,SW1990 [9],Active
same,Activity,SW1990 [10],Active
same,Activity,SW1990 [11],Active
same,Activity,[12],Non-Toxic
same,Activity,SW1990 [13],Active
Cc1sc2c(c1C)C(c1ccc(Cl)cc1)=N[C@@H](CC(=O)OC(C)(C)C)c1nnc(C)n1-2,Activity,SW1990 [14],Active
same,Activity,SW1990 [15],Active
same,Activity,SW1990 [16],Active
same,Activity,SW1990 [17],Active
same,Activity,SW1990 [18],Active
same,Activity,SW1990 [19],3.07%
Cc1noc(C)c1-c1ccc2c(c1)C(c1ccccc1)N(Cc1nc3c(C(N)=O)cccc3[nH]1)C(=O)N2C (stereo not given),Activity,SW1990 [20],Active
same,Activity,SW1990 [21],33.6%
same,Activity,SW1990 [22],Active
same,Activity,SW1990 [23],Active
same,Activity,SW1990 [24],Active
same,Activity,SW1990 [25],Active
same,inhibition,SW1990 [26],Active
same,pIC50,[27],7.31
same,Activity,SW1990 [28],Active
same,inhibition,Mus musculus,Active
same,pIC50,SW1990 [29],5.87
